{
  "source": "patent US6841236B2",
  "about": "“Articles containing thioxanthone dyes” (3M Innovative Properties Co., priority 2001, dated 2005)",
  "key": {"[1]": {"test": "Daytime color of copolyester film with dye laminated to retroreflective sheeting", "format": "physicochemical", "details": "dye 0.2 wt.-% in copolyester resin, 0.1 mm film on Scotchlite 3970", "description": "The daytime color of each article was measured using a Labsphere BFC-450 Bispectral Colorimeter commercially available from Labsphere, North Sutton, N.H. The daytime chromaticity (x,y), total luminance factor (YT), and fluorescence luminance factor (YF; which is a measure of the fluorescent properties of the article) calculated for the CIE D65 and the CIE 1931 observer are provided in TABLE II\nExamples 17-18 were prepared as described in Examples 8-10, except that the dyes of Examples 1 and 2 at a 0.2 wt.-% loading were independently incorporated into a copolyester resin. The copolyester resin was prepared using terephthalic and isophthalic acid in an 80/20 ratio and ethylene glycol in the conventional manner and analogous to the production of polyethylene terephthalate according to the method described in Macromolecular Syntheses, A Periodic Publication of Methods for the Preparation of Macromolecules, Collective Volume I, 1977, J. A. Moore, Editor, (John Wiley & Sons, New York; 1978);p. 17-21. The extrusion conditions for the copolyester were 254-260° C. using a single screw extruder and the resultant film thickness was 0.1 mm.\nThe resultant films were laminated to Scotchlite 3970 reflective sheeting on aluminum panels as described in Examples 8-10. Color values were measured as described in Examples 8-10 and the results set out in TABLE IV."}, "[2]": {"test": "Dye concentration in saturated acetone solution at room temperature", "format": "physicochemical", "details": "72 hours at RT, 0.45 micron PTFE filtered, absorbance at 535 nm", "description": "Examples 4-7 were prepared by placing 60-100 mg of each of the compounds of Examples 1-3 and 6-methoxy-14H-anthra(2,1,9-mna)thioxanthene-14-one (described by Carlini et al.) in a vial with 5.0 ml acetone. […] Each vial was hand shaken and the solution was filtered using a 0.45 micron polytetrafluoroethylene (PTFE) filter commercially available from VWR Scientific Products, West Chester, Pa. under the trade designation “Acrodisc 13CR PTFE”.\nThe amount of fluorescent dye in the saturated acetone solution was determined by measuring the major dye absorption band at 535 nm using a UV-Vis Spectrophotometer commercially available from Shimadzu Scientific Instruments, Inc., Columbia, Md. under the trade designation “Shimadzu model UV-2401PC”. Dye concentrations were calculated by measuring the absorbance of the saturated acetone solution, and then diluting that solution until absorbance of the resulting solution was below 3. The dyes were assumed to have equal absorbance per mole. Using the dilution and an absorbance coefficient of 16,100 A/mol/L (coefficient obtained in acetone for the dye of Example 3) and assuming a Beer's Law relationship, the concentration of dye in each saturated solution was calculated and is set out in TABLE I"}},
  "data": [
    {"molecule": "CCCCCCCCOc1cc2c3ccccc3c(=O)c3ccc4c5ccccc5sc1c4c32", "note": "[Example 1, 6-n-Octyloxy-14H-anthra(2,1,9mna)thioxanthene-14-one]", "values": [
      {"measurement": "YF (fluorescence luminance factor)", "setting": "[1]", "result": 11.70},
      {"measurement": "YT (total luminance factor)", "setting": "[1]", "result": 22.83},
      {"measurement": "x (daytime chromaticity)", "setting": "[1]", "result": 0.5429},
      {"measurement": "y (daytime chromaticity)", "setting": "[1]", "result": 0.3056},
      {"measurement": "Dye Concentration in Acetone at RT", "setting": "[2]", "result": 0.19, "unit": "mg/mL"}
    ]}
  ]
}
